Measurements taken from the Deep4Chem optical property database.
One block for each compound: values may come before it.

Assay: solvent given as SMILES

SMILES: CC1=CC(C)=[N+]2C1=C(c1ccc(N3CCOCC3)cc1)c1c(C)cc(C)n1[B-]2(F)F
absorption maximum (in C1CCOC1): 500 nm
absorption maximum (in CC#N): 496 nm
absorption maximum (in CC(=O)C(C)(C)C): 495 nm
absorption maximum (in CC(C)=O): 490 nm
absorption maximum (in CCCCCC): 498 nm
absorption maximum (in CCOC(C)=O): 498 nm
absorption maximum (in CO): 494 nm

SMILES: CCCCCCC(CCCCCC)N1C(=O)c2cccc3c(-c4ccccc4)ccc(c23)C1=O
absorption maximum (in CCCCCC): 342.2 nm
absorption maximum (in CCCCCCCCCCCCCC): 343.4 nm
absorption maximum (in CCCCCCCCCCCO): 353.4 nm
absorption maximum (in CCCCO): 355.2 nm
absorption maximum (in CN(C)C=O): 355.2 nm
absorption maximum (in Cc1ccccc1): 346.8 nm
absorption maximum (in ClC(Cl)Cl): 355.4 nm

SMILES: CC1=CC2=Nc3nc(C)[n+](C)cc3CN2C=C1
absorption maximum (in CC#N): 403 nm
absorption maximum (in CCO): 398 nm
absorption maximum (in O): 392 nm

SMILES: c1ccncc1
absorption maximum (in CC1CCCCC1): 252 nm
absorption maximum (in ClC(Cl)Cl): 253 nm
absorption maximum (in O): 253 nm

SMILES: COc1ccc(-c2nnc(-c3cc(-c4nnc(-c5ccc(OC)cc5)o4)c(-n4c5ccccc5c5ccccc54)cc3-n3c4ccccc4c4ccccc43)o2)cc1
absorption maximum (in Cc1ccccc1): 371 nm

SMILES: CCOC(=O)c1sc(SC)c2c(=O)[nH]nnc12
absorption maximum (in C1CCOC1): 380.5 nm
absorption maximum (in CC#N): 381 nm
absorption maximum (in CCO): 385 nm
absorption maximum (in CN(C)C=O): 389 nm
absorption maximum (in CO): 384.5 nm
absorption maximum (in CS(C)=O): 387.5 nm

SMILES: CC(C)(C)c1ccc2c(c1)c1cc(C(C)(C)C)ccc1n2-c1cccs1
absorption maximum (in ClCCl): 340 nm

SMILES: C(=C\c1ccccn1)/c1ccc(N(c2ccc(/C=C/c3ccccn3)cc2)c2ccc(-c3nc4ccccc4nc3-c3ccc(N(c4ccc(/C=C/c5ccccn5)cc4)c4ccc(/C=C/c5ccccn5)cc4)cc3)cc2)cc1
absorption maximum (in C1CCOC1): 383 nm
absorption maximum (in Cc1ccccc1): 378 nm

SMILES: C(#Cc1ccccc1)C(C#Cc1ccccc1)=Cc1ccc(C=C(C#Cc2ccccc2)C#Cc2ccccc2)s1
absorption maximum (in ClC(Cl)Cl): 468 nm

SMILES: CCCCOc1c(OC)cc2cc(OC)c(OCCCC)c3c4c(OCCCC)c(OC)cc5cc(OC)c(OCCCC)c(c1c23)c54
absorption maximum (in ClCCl): 451 nm

SMILES: CC(C)(C)c1ccc(-c2sc3c(-c4ccc(C(C)(C)C)cc4)c4n(c3c2-c2ccc(C(C)(C)C)cc2)[B-](F)(F)[N+]2=Cc3c(-c5ccc(C(C)(C)C)cc5)c5sc(-c6ccc(C(C)(C)C)cc6)c(-c6ccc(C(C)(C)C)cc6)c5n3[B-](F)(F)[N+]2=C4)cc1
absorption maximum (in CC#N): 574 nm
absorption maximum (in CCCCCC): 591 nm
absorption maximum (in CN(C)C=O): 584 nm
absorption maximum (in Cc1ccccc1): 596 nm
absorption maximum (in ClCCl): 591 nm

SMILES: COC(=O)c1ccc(C#Cc2ccccc2)cc1
absorption maximum (in C1CCCCC1): 316.6 nm
absorption maximum (in CC#N): 311.6 nm
absorption maximum (in CC(C)O): 313.8 nm
absorption maximum (in CCCCCC): 314.8 nm
absorption maximum (in CCCCCCCCCCCCCCCC): 317.3 nm
absorption maximum (in CCCCCCCCCCCCCCCCCl): 317.2 nm
absorption maximum (in CO): 311.8 nm

SMILES: CCCCCCCCCCCCn1cccc1/C=C/c1ccc(/C=C/c2cccn2CCCCCCCCCCCC)cc1
absorption maximum (in Cc1ccccc1): 398 nm

SMILES: Cc1cc(-n2c3ccccc3c3ccccc32)ccc1-c1ccc(S(=O)(=O)c2ccccc2)cc1C
absorption maximum (in Cc1ccccc1): 340 nm

SMILES: CCCCOc1ccc(/C=C/C=C/C=C/c2ccc([N+](=O)[O-])cc2)cc1
absorption maximum (in CC1CCCCC1): 414 nm
absorption maximum (in CC#N): 413 nm
absorption maximum (in Cc1ccccc1): 420 nm
absorption maximum (in ClCCl): 421 nm

SMILES: Nc1cc([NH3+])cc(-c2nc3ccccc3s2)c1
absorption maximum (in O): 300 nm

SMILES: Cc1cc(C)c(C)c(-c2cc(-c3c(C)c(C)cc(C)c3C)c3ccc4c(-c5c(C)c(C)cc(C)c5C)cc(-c5c(C)c(C)cc(C)c5C)c5ccc2c3c54)c1C
absorption maximum (in ClCCl): 364 nm

SMILES: C(=C\c1nc2ccccc2s1)/c1ccccc1
absorption maximum (in C1CCCCC1): 340 nm
absorption maximum (in CO): 340 nm

SMILES: CCCCCCCCCCc1cc(-c2cc(CCCCCCCCCC)c(-c3cccs3)s2)sc1-c1cccs1
absorption maximum (in CCCCCCCCCCCCCC): 380 nm

SMILES: CC[N+]1(CC)CN2C(=N1)C(C(=O)O)=Cc1cc(C)c(C)cc12
absorption maximum (in O): 378 nm

SMILES: c1ccc(-c2nc(-c3ccccc3)nc(-c3ccc(-n4c5ccccc5c5cc(-n6c7ccccc7c7ccccc76)ccc54)c4c5ccccc5n(-c5ccccc5)c34)n2)cc1
absorption maximum (in Cc1ccccc1): 378.07 nm

SMILES: Cc1ccc(-n2c3ccccc3c3cc(C(=C(C#N)C#N)c4ccccc4)ccc32)cc1
absorption maximum (in C1CCOC1): 442 nm
absorption maximum (in CC#N): 445 nm
absorption maximum (in CC(C)=O): 442 nm
absorption maximum (in CCOC(C)=O): 442 nm
absorption maximum (in CO): 447 nm
absorption maximum (in CS(C)=O): 453 nm
absorption maximum (in Cc1ccccc1): 447 nm
absorption maximum (in ClC(Cl)Cl): 458 nm

SMILES: CC1(C)c2ccccc2N(c2ccc(-c3ccc(C#N)cc3)cc2)c2ccccc21
absorption maximum (in Cc1ccccc1): 358 nm

SMILES: COC(=O)c1[nH]c(-c2ccccc2)c2nnc3ccsc3c12
absorption maximum (in ClCCl): 401 nm

SMILES: CCOC(=O)c1cc(C(=O)OCC)c2cccc(O)c2n1
absorption maximum (in CCO): 369 nm

SMILES: CCCCCCCCn1cc(-n2c(-c3cc(-c4nc5ccc(C)cc5n4-c4cn(CCCCCCCC)nn4)cc(-c4nc5ccc(C)cc5n4-c4cn(CCCCCCCC)nn4)c3)nc3ccc(C)cc32)nn1
absorption maximum (in ClCCl): 309.5 nm

SMILES: Cc1cc(C#N)ccc1N1c2ccccc2C(c2ccccc2)(c2ccccc2)c2ccccc21
absorption maximum (in Cc1ccccc1): 349 nm

SMILES: Cc1ccc([C@@H]2C[C@](O)(c3ccccn3)C[C@](O)(c3ccccn3)[C@H]2C(=O)c2ccc(N(c3ccccc3)c3ccccc3)cc2)cc1
absorption maximum (in C1CCOC1): 366 nm
absorption maximum (in CC#N): 364 nm
absorption maximum (in CCO): 366 nm
absorption maximum (in CCOC(C)=O): 366 nm
absorption maximum (in CN(C)C=O): 360 nm
absorption maximum (in ClCCl): 372 nm
absorption maximum (in c1ccccc1): 370 nm

SMILES: CCCCCCCCCCCCn1c(-c2cc(-c3nc4ccc(C)cc4n3CCCCCCCCCCCC)cc(-c3nc4ccc(C)cc4n3CCCCCCCCCCCC)c2)nc2ccc(C)cc21
absorption maximum (in ClCCl): 306.5 nm

Further lines, results first:

absorption maximum (in C1CCOC1): 336 nm
SMILES: Cc1cc(C2=C(c3c(C)sc(-c4ccc(-c5nc(-c6ccccc6)c(-c6ccccc6)[nH]5)cc4)c3C)C(F)(F)C(F)(F)C2(F)F)c(C)s1

absorption maximum (in ClCCl): 391 nm
SMILES: Cc1c(C(=O)c2ccccc2)c2ccc3cccc4c5cccc6ccc1c(c65)c2c34

absorption maximum (in CC#N): 336 nm
SMILES: COc1ccc(/C=C2\OC(=O)c3ccccc32)cc1

absorption maximum (in C1COCCO1): 442 nm
SMILES: O=C1OC(c2ccccc2)=C/C1=C\c1ccccc1

absorption maximum (in CCOC(C)=O): 383 nm
SMILES: CCn1ncc2c3c(C#N)c4c5ccccc5n(C)c4nc3ccc21

absorption maximum (in ClCCl): 441 nm
SMILES: O=C1c2ccccc2-c2nc3c4ccccc4c4ccccc4c3n21

absorption maximum (in CCO): 591 nm
absorption maximum (in ClC(Cl)Cl): 602 nm
absorption maximum (in O): 594 nm
SMILES: CCN(CC)c1ccc2c(c1)oc(=O)c1c(-c3ccccc3C(=O)O)c3ccc(=[N+](CC)CC)cc-3oc12

absorption maximum (in CC#N): 408 nm
SMILES: CCOC(=O)c1c2c3c(ccc(Cl)c3c3cc4ccccc4cc13)N(C)C2=O

absorption maximum (in ClC(Cl)Cl): 371 nm
SMILES: Clc1ccc(-c2nc(-c3ccccc3)c(N(c3ccccc3)c3ccccc3)s2)cc1

absorption maximum (in C1CCOC1): 391 nm
SMILES: F[Si-](F)(c1ccccc1)(c1c2ccccc2cc2ccccc12)c1c2ccccc2cc2ccccc12

absorption maximum (in ClCCl): 406 nm
SMILES: CN(C)c1ccc(C#Cc2cc3ccccc3oc2=O)cc1

absorption maximum (in O): 430 nm
SMILES: COc1ccc(-c2cc(N3CCCCC3)c(C#N)c3c2-c2cccc4cccc-3c24)cc1

absorption maximum (in CC(C)O): 529 nm
absorption maximum (in CCO): 527 nm
absorption maximum (in CO): 522 nm
absorption maximum (in O): 515 nm
SMILES: O=C([O-])c1ccccc1-c1c2cc(Br)c(=O)c(Br)c-2oc2c(Br)c([O-])c(Br)cc12

absorption maximum (in CO): 406 nm
SMILES: Nc1ccc(C#Cc2ccc3ccc4ccc(C#Cc5ccc(NS(=O)(=O)c6ccc([N+](=O)[O-])cc6[N+](=O)[O-])cc5)c5ccc2c3c45)cc1

absorption maximum (in CO): 535 nm
SMILES: CCOC(=O)CCCCCn1c2ccccc2c(=O)c2cc3c(cc21)c(=O)c1cc(I)ccc1n3CCCCCC(=O)OCC

absorption maximum (in CC1CCCO1): 631 nm
SMILES: CC1=CC(/C=C/c2ccc(C)cc2)=[N+]2C1=C(c1ccccc1)c1c(C)cc(/C=C/c3ccc(C)cc3)n1[B-]2(F)F

absorption maximum (in CCO): 439 nm
SMILES: COc1ccc(C(=O)OCc2ccc3c4cccc5cccc(c6cccc2c63)c54)cc1

absorption maximum (in C1CCOC1): 513 nm
SMILES: C[Si](C)(C)c1ccc(-c2ccc(-c3ccc(-c4ccc(-c5ccc([Si](C)(C)C)s5)s4)c4nsnc34)s2)s1

absorption maximum (in CC#N): 555 nm
absorption maximum (in CCO): 539 nm
absorption maximum (in CN(C)C=O): 560 nm
absorption maximum (in O): 554 nm
SMILES: CCN(CC)c1ccc2c(-c3ccccc3C(=O)[O-])c3ccc(=[N+](CC)CC)cc-3oc2c1

absorption maximum (in CCO): 645 nm
absorption maximum (in CO): 642 nm
absorption maximum (in CS(C)=O): 653 nm
absorption maximum (in O): 639 nm
SMILES: CN1/C(=C/C=C(/C=C/c2sc3ccccc3[n+]2C)c2cccc(C(F)(F)F)c2)Sc2ccccc21

absorption maximum (in C1CCOC1): 411 nm
SMILES: O=c1oc2cccc3c4cccc5ccc6c7cc(F)ccc7c1c(c23)c6c54

absorption maximum (in CN(C)C=O): 658 nm
SMILES: c1ccc(CO[Si]23n4c5c6ccccc6c4/N=C4N=C(/N=c6/c7ccccc7c(n62)=c2c6ccccc6c(n23)=N5)c2ccccc2\4)cc1 (centres undefined)

absorption maximum (in ClC(Cl)Cl): 430 nm
SMILES: F[B-]1(F)OC(c2ccc(C(F)(F)F)cc2)=Cc2c3ccccc3c3ccccc3[n+]21

absorption maximum (in ClC(Cl)Cl): 506 nm
SMILES: CC1=CC(C)=[N+]2C1=C(c1ccc(I)cc1)c1c(C)cc(C)n1[B-]2(OCc1ccccc1)OCc1ccccc1

absorption maximum (in ClC(Cl)Cl): 351 nm
SMILES: CC(=O)OCCN1C(=O)c2cccc3c(Oc4ccc(C#N)cc4)ccc(c23)C1=O

absorption maximum (in ClCCl): 477 nm
SMILES: CCCCN1C(=O)C2=C(c3ccc(Br)cc3)NC(=O)C2=C1c1ccc(Br)cc1

absorption maximum (in C1CCOC1): 450 nm
absorption maximum (in CCCCCC): 440 nm
absorption maximum (in ClCCl): 462 nm
absorption maximum (in c1ccccc1): 450 nm
SMILES: O=C1OC(=O)c2ccc(N(c3ccccc3)c3c4ccccc4cc4ccccc34)c3cccc1c23

absorption maximum (in CC#N): 524 nm
absorption maximum (in CCO): 527 nm
absorption maximum (in CN(C)C=O): 534 nm
absorption maximum (in CO): 530 nm
absorption maximum (in O): 525 nm
SMILES: CCNc1cc2oc3c/c(=[NH+]\CC)c(C)cc-3c(-c3ccccc3C(=O)OCC)c2cc1C
